Measurements published in the CheMixHub viscosity set.

Assay: xn = mol fraction of the nth substance listed

BrC(Br)Br + CCCCCCCO
viscosity [mPa·s], 101.3 kPa
Conditions	x1 = 0.102	x1 = 0.204	x1 = 0.301	x1 = 0.405	x1 = 0.503	x1 = 0.597	x1 = 0.699	x1 = 0.801	x1 = 0.901
298.15 K	5.359	4.647	4.131	3.544	3.133	2.755	2.44	2.17	1.982
303.15 K	4.524	3.988	3.547	3.093	2.773	2.457	2.199	1.992	1.844
308.15 K	3.863	3.422	3.084	2.712	2.461	2.205	1.99	1.822	1.713

BrC(Br)Br + CC(C)CO
viscosity [mPa·s], 101.3 kPa
Conditions	x1 = 0.099	x1 = 0.197	x1 = 0.3	x1 = 0.395	x1 = 0.498	x1 = 0.597	x1 = 0.701	x1 = 0.798	x1 = 0.901
298.15 K	2.98	2.604	2.336	2.134	2.017	1.905	1.849	1.815	1.823
303.15 K	2.544	2.272	2.045	1.901	1.808	1.732	1.693	1.679	1.699
308.15 K	2.193	2.011	1.803	1.687	1.633	1.579	1.559	1.558	1.591

O=[N+]([O-])[O-].O=[N+]([O-])[O-].[Cd+2] + O
viscosity [mPa·s], 101.3 kPa
Conditions	x1 = 0.0009	x1 = 0.0018	x1 = 0.00893	x1 = 0.0177	x1 = 0.02631	x1 = 0.03478	x1 = 0.05127	x1 = 0.06722	x1 = 0.08263
293.15 K	1.02	1.036	1.166	1.363	1.607	1.912	2.746	3.964	5.664
298.15 K	0.9069	0.9215	1.041	1.219	1.437	1.708	2.443	3.496	4.949
303.15 K	0.8129	0.8263	0.936	1.097	1.293	1.537	2.189	3.11	4.364
308.15 K	0.7336	0.7459	0.8471	0.994	1.171	1.391	1.975	2.789	3.882
313.15 K	0.6664	0.678	0.7712	0.9059	1.067	1.267	1.792	2.521	3.48
318.15 K	0.6085	0.6193	0.7057	0.8296	0.977	1.16	1.637	2.288	3.143
323.15 K	0.5582	0.568	0.6484	0.7627	0.8979	1.066	1.502	2.093	2.855

CC12CC3CC(C1)CC(C)(C3)C2 + C1C[C@@H]2[C@H]3CC[C@H](C3)[C@@H]2C1
viscosity [mPa·s], 100 kPa
Conditions	x1 = 0.1021	x1 = 0.2015	x1 = 0.3018	x1 = 0.4005	x1 = 0.4981	x1 = 0.602	x1 = 0.6998	x1 = 0.8051	x1 = 0.8993
293.15 K	3.147	3.237	3.335	3.436	3.513	3.592	3.657	–	3.747
298.15 K	2.841	2.922	3.002	3.084	3.151	3.22	3.273	–	3.342
303.15 K	2.582	2.65	2.717	2.787	2.847	2.904	–	–	3.002
313.15 K	2.158	2.207	2.257	2.307	2.353	–	–	2.451	2.458
323.15 K	1.796	–	–	–	1.955	1.989	2.012	–	2.046

C=Cc1ccccc1 + CCCCCCCCCCCC
viscosity [mPa·s], 101.33 kPa
Conditions	x1 = 0.0973	x1 = 0.2027	x1 = 0.2991	x1 = 0.4009	x1 = 0.5183	x1 = 0.5987	x1 = 0.699	x1 = 0.8005	x1 = 0.8996
298.15 K	1.243	1.143	1.062	0.99	0.909	0.866	0.822	0.774	0.739
303.15 K	1.151	1.051	0.985	0.92	0.847	0.81	0.769	0.722	0.688
308.15 K	1.059	0.98	0.915	0.854	0.791	0.76	0.724	0.691	0.656

C=Cc1ccccc1 + CCCCCCCCC
viscosity [mPa·s], 101.33 kPa
Conditions	x1 = 0.0999	x1 = 0.2002	x1 = 0.2986	x1 = 0.3964	x1 = 0.4953	x1 = 0.5967	x1 = 0.6984	x1 = 0.7933	x1 = 0.8971
298.15 K	0.638	0.626	0.618	0.613	0.614	0.616	0.628	0.642	0.669
303.15 K	0.606	0.588	0.582	0.577	0.579	0.581	0.593	0.606	0.628
308.15 K	0.564	0.551	0.547	0.544	0.544	0.547	0.558	0.57	0.591

CCC(C)(C)OC + CO
298.15 K, 101.33 kPa
Conditions	viscosity [mPa·s]
x1 = 0.005	0.55
x1 = 0.0339	0.554
x1 = 0.0488	0.556
x1 = 0.0714	0.557
x1 = 0.1129	0.555
x1 = 0.1508	0.552
x1 = 0.1987	0.546
x1 = 0.2009	0.546
x1 = 0.2338	0.541
x1 = 0.2861	0.532
x1 = 0.3409	0.524
x1 = 0.379	0.516
x1 = 0.4252	0.508
x1 = 0.4676	0.5
x1 = 0.5142	0.491
x1 = 0.5503	0.486
x1 = 0.6236	0.477
x1 = 0.6574	0.473
x1 = 0.6944	0.468
x1 = 0.7437	0.462
x1 = 0.7936	0.457
x1 = 0.8642	0.45
x1 = 0.9029	0.446

BrC(Br)Br + CCCCCCO
viscosity [mPa·s], 101.3 kPa
Conditions	x1 = 0.097	x1 = 0.199	x1 = 0.298	x1 = 0.403	x1 = 0.497	x1 = 0.601	x1 = 0.701	x1 = 0.798	x1 = 0.9
298.15 K	4.186	3.77	3.34	2.965	2.667	2.4	2.192	2.031	1.922
303.15 K	3.573	3.237	2.907	2.611	2.37	2.156	1.988	1.866	1.784
308.15 K	3.092	2.811	2.537	2.301	2.114	1.943	1.815	1.719	1.663

CC(C)(C)N + O=C1CCCCC1
298.15 K, 101 kPa
Conditions	viscosity [mPa·s]
x2 = 0.0765	0.525
x2 = 0.157	0.607
x2 = 0.2421	0.702
x2 = 0.3319	0.787
x2 = 0.427	0.893
x2 = 0.5278	1.021
x2 = 0.6349	1.172
x2 = 0.7488	1.373
x2 = 0.8702	1.644

BrC(Br)Br + COC(C)=O
viscosity [mPa·s], 101 kPa
Conditions	x1 = 0.0997	x1 = 0.1981	x1 = 0.2985	x1 = 0.406	x1 = 0.5052	x1 = 0.6046	x1 = 0.7016	x1 = 0.7984	x1 = 0.89
298.15 K	0.4806	–	0.7148	0.8716	1.039	1.215	1.403	1.6	1.783
303.15 K	0.4671	0.5871	0.6791	0.8247	0.9763	1.141	1.297	1.5	1.671
308.15 K	0.4465	0.5511	0.6431	0.7797	0.9244	1.07	1.207	1.405	1.57
313.15 K	0.4263	0.511	0.6007	0.7368	0.8701	1.009	1.141	1.317	1.471

O=S(=O)([O-])c1ccccc1.[Na+] + O
viscosity [mPa·s], 101 kPa
Conditions	x1 = 9e-05	x1 = 0.00018	x1 = 0.0009	x1 = 0.0018	x1 = 0.00448	x1 = 0.00893	x1 = 0.0133	x1 = 0.0177
298.15 K	0.898	0.899	0.915	0.932	0.98	1.073	1.17	1.273
318.15 K	0.598	0.599	0.609	0.619	0.648	0.705	0.762	0.825

C=Cc1ccccc1 + C1COCCO1
viscosity [mPa·s], 101.33 kPa
Conditions	x1 = 0.1012	x1 = 0.2139	x1 = 0.2989	x1 = 0.3996	x1 = 0.5054	x1 = 0.6016	x1 = 0.7019	x1 = 0.805	x1 = 0.9021
298.15 K	1.119	1.069	1.043	1.005	0.966	0.929	0.891	0.853	0.819
303.15 K	1.034	0.987	0.959	0.929	0.893	0.873	0.829	0.795	0.766
308.15 K	0.957	0.915	0.889	0.862	0.83	0.802	0.774	0.744	0.716

BrC(Br)Br + CCCO
viscosity [mPa·s], 101 kPa
Conditions	x1 = 0.0998	x1 = 0.1979	x1 = 0.2988	x1 = 0.4005	x1 = 0.5	x1 = 0.5953	x1 = 0.69	x1 = 0.7999	x1 = 0.9007
298.15 K	1.964	1.932	1.879	1.813	1.782	1.767	1.768	1.786	1.853
303.15 K	1.737	1.716	1.681	1.647	1.623	1.621	1.632	1.674	1.734
308.15 K	1.543	1.528	1.506	1.481	1.481	1.49	1.505	1.559	1.618
313.15 K	1.363	1.363	1.354	1.339	1.352	1.379	1.393	1.448	1.515

CC12CC3CC(C1)CC(C)(C3)C2 + CCCCC1CCCCC1
viscosity [mPa·s], 100 kPa
Conditions	x1 = 0.083	x1 = 0.1716	x1 = 0.2652	x1 = 0.3625	x1 = 0.4617	x1 = 0.5636	x1 = 0.662	x1 = 0.7728	x1 = 0.8838
293.15 K	1.407	1.518	1.654	1.802	1.989	2.215	2.472	2.797	3.222
298.15 K	1.293	1.391	1.512	1.643	1.805	2.007	2.229	2.518	2.885
303.15 K	1.194	1.281	1.389	1.506	1.647	1.828	2.024	2.272	2.601
313.15 K	1.03	1.099	1.187	1.28	1.393	1.537	1.692	1.883	2.145
323.15 K	0.893	0.951	1.008	1.088	1.182	1.289	1.414	1.583	1.774

CCC(C)(C)OC + Cc1cccc(C)c1
viscosity [mPa·s], 100 kPa
Conditions	x1 = 0.0521	x1 = 0.1462	x1 = 0.2667	x1 = 0.4165	x1 = 0.4774	x1 = 0.5331	x1 = 0.6068	x1 = 0.7371	x1 = 0.8642	x1 = 0.9512
293.15 K	0.603	0.584	0.563	0.539	0.53	0.521	0.509	0.487	0.464	0.448
303.15 K	0.542	0.531	0.518	0.499	0.489	0.48	0.468	0.447	0.426	0.417
313.15 K	0.484	0.47	0.455	0.439	0.433	0.427	0.419	0.404	0.386	0.375
